Experimental findings from patent US20050260629A1, “Differential drug sensitivity” (Ludwig Institute for Cancer Research, priority 2004, published 2005) are described below.

Entries after “also recorded” stand apart in the source; their conditions may differ.

Holding throughout (assay type): cell-based, Human
In one data set the test system is Pig3 promoter. As to the kind of experiment: Pig3Luciferase stable U2OS cell line. The procedure:
(§1) Cells were co-transfected with 1 μg of the plasmid of interest and 4 μg of pCDNA3, which contains the resistance gene against neomycin for 6 hours. They were washed once with PBS and cultured in medium supplemented with neomycin. Twenty four hours later they were split and plated at different dilutions (from 1:50 to 1:200) in medium containing neomycin. The medium was changed every three days for two weeks until colonies formed. Colonies were picked and sub-cultured into a 24-well plate. After proliferation of each colony, cells were characterized either by luciferase assays or by western blotting according to the cell line.
(§2) Twenty four hours after transfection, the cells were lysed in Reporter Lysis buffer supplied by Promega and assayed using the Luciferase assay kit (Promega), measuring luciferase activity with the Autolumat Plus (Berthold technologies). The fold activation of a particular reporter was determined by the activity of the transfected plasmid divided by the activity of vector alone. The fold increase of activity in response to drug treatment was obtained by the activity in the presence of drug divided by the activity of the untreated sample.
(§3) Pig3Luciferase, Pig3-delFLuciferase (similar to the Pig3 promoter but without the p53 binding site), p21Luciferase, MDM2Luciferase reporters were used to generate four cell lines in U2OS cells.

In a further data set the test system is p21 promoter. As to the kind of experiment: p21Luciferase stable U2OS cell line. The procedure:
as §1, §2, §3

The subject of the next data set is MDM2 promoter. As to the kind of experiment: MDM2Luciferase stable U2OS cell line. As for the experimental part: as §1, §2, §3
Data set [1] deals with proapoptotic promoter Pig3. Put plainly: Pig3Luciferase reporter transactivation, transient transfection in U2OS cells. To be noted: treated 24 hours. The procedure:
(§4) Adherent cells were grown to a confluence of 70-80% in fresh medium. Cells were plated 24 hours prior to the transfection procedure. The medium on the dishes was replaced with 3 ml of fresh medium 15-30 minutes before the transfection. 2×HBS buffer (280 mM NaCl, 10 mM KCL, 1.4 mM Na2HPO4.2H2O, 12 mM glucose, 39 mM HEPES, adjusted to a pH 6.9-7.3) was diluted in sterile water to a concentration of 1× in a final volume of 300 μl. The required amount of DNA was added using sterile Gilson tips and mixed thoroughly. To form the precipitate, 12.5 μl of 2.5 M CaCl2 was added to the transfection mix and left at room temperature for 12-15 minutes. Six hours later dishes were washed with medium without serum once before adding 3 ml of fresh medium supplemented with 10% serum until further analysis of cells.
as §2
Some of the drugs commonly used in cancer therapy are known to stimulate p53 transactivation activity. To test their effect on a proapoptotic promoter specifically transactivated by p53, U2OS and MCF7 cells (both wild type p53) were transiently transfected with the proapoptotic reporter Pig3Luciferase and then treated for 24 hours with eight different compounds (FIGS. 1A and 1B).
Si—RNA cloned into pSuper plasmid (Brummelkamp et al., Science. 296(5567):550-3, 2002) was transiently transfected with the Pig3 reporter into U2OS cells treated with doxorubicin or cisplatin (FIG. 3A).

In a further data set the test system is ASPP2 promoter. Put plainly: ASPP2 promoter luciferase stable U2OS cell line. The procedure:
as §1, §2
(§5) ASPP might respond to drugs in many ways in cells. To start investigating this, stable cell lines expressing luciferase under the control of the ASPP1 or ASPP2 promoters were created in U2OS cells. For each cell line, two clones were tested with the six drugs used previously. […] At the same time, these cell lines were used to titrate drugs.

A further data set has as its system ASPP1 promoter. Put plainly: ASPP1 promoter luciferase stable U2OS cell line. The procedure:
as §1, §2, §5

For data set [2], the system named is proapoptotic promoter Pig3. Put plainly: Pig3Luciferase reporter transactivation, transient transfection in MCF7 cells. Particulars: treated 24 hours. As for the experimental part:
as §4
Twenty four hours after transfection, the cells were lysed in Reporter Lysis buffer supplied by Promega and assayed using the Luciferase assay kit (Promega), measuring luciferase activity with the Autolumat Plus (Berthold technologies). The fold activation of a particular reporter was determined by the activity of the transfected plasmid divided by the activity of vector alone. The fold increase of activity in response to drug treatment was obtained by the activity in the presence of drug divided by the activity of the untreated sample. […]

The next data set relates to deleted Pig3 promoter. Put plainly: Pig3-delFLuciferase stable U2OS cell line (no p53 binding site). The procedure: as §1, §2, §3
Setting [3] is: drug titration, regardless of the concentration.

In the case of `CO[C@@]12[C@H](COC(N)=O)C3=C(C(=O)C(C)=C(N)C3=O)N1C[C@@H]1N[C@@H]12` [mitomycin C], the Pig3-Luciferase activity entry with Pig3 promoter is recorded as “did not affect”. Moreover, in the data set with p21 promoter, the p21 promoter activity entry is “did not affect”. For the same compound, in the data set on MDM2 promoter, the MDM2 promoter activity entry is “did not affect”.

Consider `N.N.[Cl][Pt][Cl]` [cisplatin], for which, in the data set on Pig3 promoter, the Pig3-Luciferase activity entry is “did not affect”. Also, in data set [1], the “Pig3 promoter activity went up by” value came out at 2.9 fold and the “ability of p53 to transactivate the Pig3 promoter” value (shortened to “ability of p53”) is “did not have the same efficiency as doxorubicin”. In addition, in the data set on ASPP2 promoter (clone 4, drug titration), the ASPP2 promoter activity entry was “no effect”. Further, in the data set on p21 promoter, the p21 promoter activity result is recorded as “did not affect”. Moreover, the MDM2 promoter activity result with MDM2 promoter is on record as “did not affect”. The ASPP1Luciferase reporter activity entry in the data set on ASPP1 promoter (setting [3]) was “little effect”.

As for `O=c1[nH]cc(F)c(=O)[nH]1` [5-Fluorouracil], the “Pig3 promoter activity induced by” value in the data set on Pig3 promoter is reported as “three”. The “ability of p53” value in data set [1] is reported as “able to induce such induction”. In addition, the ASPP2 promoter activation with ASPP2 promoter (clone 4, titration, at 40 μg/ml) was 3 fold. For the same compound, in the data set on MDM2 promoter, the “effect on the MDM2 promoter” value came to 7 fold. Moreover, in the data set on ASPP1 promoter (drug titration), the “concentration inducing the maximum ASPP1Luciferase reporter activity” value is 40 µg/mL. For the same compound, the ASPP1 promoter activity result in the data set with ASPP1 promoter (stable U2OS, two clones, after 24 hours, listed as 5-fluorouracil) was “activates”.

With `COc1cccc2c1C(=O)c1c(O)c3c(c(O)c1C2=O)C[C@@](O)(C(C)=O)C[C@@H]3O[C@H]1C[C@H](N)[C@H](O)[C@H](C)O1` [daunorubicin], the Pig3-Luciferase activity entry in the data set with Pig3 promoter was “specifically stimulated”. Also, in data set [1], the “Pig3 promoter activity went up by” value is reported as 34.7 fold and the “ability of p53” value was “strongly increased”. The “ASPP2 promoter activity increase” value with ASPP2 promoter (clone 4, titration, at 150 ng/ml) was 4 fold. For the same compound, in the data set on ASPP2 promoter (stable U2OS, clone 4), the ASPP2 promoter activity result is recorded as “stimulated”. The p21 promoter activity entry in the data set with p21 promoter is reported as “not p21 or MDM2”. The MDM2 promoter activity result with MDM2 promoter is “not p21 or MDM2”. Moreover, in data set [2], the “ability of p53” value is recorded as “strongly increased”. The ASPP1Luciferase reporter activity result in the data set on ASPP1 promoter (setting [3]) is reported as “little effect”.

As for `COc1cc([C@@H]2c3cc4c(cc3[C@@H](O[C@@H]3O[C@@H]5CO[C@@H](C)O[C@H]5[C@H](O)[C@H]3O)[C@H]3COC(=O)[C@H]23)OCO4)cc(OC)c1O` [etoposide], the Pig3-Luciferase activity result in the data set with Pig3 promoter is “did not affect”. The p21 promoter activity result in the data set on p21 promoter is “did not affect”. Further, in the data set with MDM2 promoter, the MDM2 promoter activity result was “did not affect”.

On to `COc1cccc2c1C(=O)c1c(O)c3c(c(O)c1C2=O)C[C@@](O)(C(=O)CO)C[C@@H]3O[C@H]1C[C@H](N)[C@H](O)[C@H](C)O1` [doxorubicin], for which the Pig3-Luciferase activity result in the data set with Pig3 promoter is “respond; also recorded: specifically stimulated”. In addition, the “ability of p53” value in data set [1] and in data set [2] was “strongly increased” in each case. Further, the ASPP2 promoter activity entry in the data set with ASPP2 promoter (FIGS. 4A and 4B (both clones)) is reported as “activates”; with ASPP2 promoter (stable U2OS, clone 3), “had an effect”; in the data set on ASPP2 promoter (stable U2OS, clone 4), “stimulated”. In addition, in the data set on ASPP2 promoter (clone 4, titration, at 2 μM (highest effect)), the “ASPP2 promoter activity, increase over the control” value turned out to be 10 fold. In the data set with p21 promoter, the p21 promoter activity entry was “not p21 or MDM2”. For the same compound, the MDM2 promoter activity entry in the data set on MDM2 promoter is given as “not p21 or MDM2”. Besides, the ASPP1Luciferase reporter activity with ASPP1 promoter (drug titration, at 2 μM) is 2 fold. Further, the “toxicity in ASPP1Luciferase cells” value in the data set with ASPP1 promoter (drug titration, concentration reached 3 μM) is given as “toxic”. Further, the “activity of the deleted Pig3 promoter” value in the data set on deleted Pig3 promoter was “did not affect”.
